Experimental data taken from US5053070A, “Pyrimidine derivatives, preparation processes thereof, herbicide containing the same, and herbicidal compositions containing the same along with other active ingredient” (Mitsui Toatsu Chemicals, Incorporated, priority 1988, dated 1991).

How the values were obtained:
Format in all cases: in vivo
soybean = test: Upland foliar application test (Test 3), crop injury; conditions: 30 g ai/a, foliar spray at 2-3 leaves, 30th day
Procedure, shortened: (§1)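 Scores record the degree of damage to weeds and injury to crops, observed 30 days after treatment. Each species was seeded in pots of upland-field soil and raised under glass to 2-3 leaves, then its foliage was sprayed with diluted compound emulsion at 5 l per are.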

cotton = test: as above; conditions: 30 g ai/a, foliar spray at 2-3 leaves, 30th day
Procedure, shortened: as §1

peanut = test: as above; conditions: 30 g ai/a, foliar spray at 2-3 leaves, 30th day
Procedure, shortened: as §1

Sagittaria pygmaea [1] = test: Treatment of soil under submerged condition, post-emergence (Test 5); conditions: 30 g ai/a granule, 30 days later
Procedure, shortened: (§2)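 Post-emergence paddy test: granules of a predetermined amount of test composition go onto flooded pots when barnyardgrass has two leaves. Transplanted rice seedlings (2–3 leaf stage) share the pots with sown weeds. Damage and crop injury are rated at 30 days.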

barnyardgrass [2] = test: as above; conditions: 30 g ai/a granule, post-emergence (barnyardgrass two-leaf stage), 30 days later
Procedure, shortened: as §2

bulrush [3] = test: as above; conditions: 30 g ai/a granule, 30 days later
Procedure, shortened: as §2

Sagittaria pygmaea [4] = test: Treatment of soil under submerged condition, pre-emergence (Test 4); conditions: 30 g ai/a granule, 30 days later
Procedure, shortened: (§3)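 First, weed seeds or tubers are sown in soil kept submerged. Next, two pairs of rice seedlings at the 2–3 leaf stage are transplanted per pot and kept in a greenhouse. After one day, before weeds emerge, a granular formulation is applied; damage and injury are rated after 30 days.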

barnyardgrass [5] = test: as above; conditions: 30 g ai/a granule, 30 days later
Procedure, shortened: as §3

bulrush [6] = test: as above; conditions: 30 g ai/a granule, 30 days later
Procedure, shortened: as §3

morningglories = test: Upland foliar application test by mixed formulations (Test 7); conditions: Ipomoea, 720 h, applied alone, 30th day, read-out: Herbicidal effects (%) Morningglory Ea; for pest or weed control at 1000 g/ha: 1 kg/ha
Procedure: (§4) Resin-made 1/10,000-are pots were filled with the soil of an upland field. Redroot pigweed, morningglories, johnsongrass, barnyardgrass and green foxtail were separately seeded and were allowed to germinate in a green house. When each plant grew to the stage of 2-3 leaves, an emulsion formulated from predetermined amounts of two test compounds of different kinds in a similar manner to the method described in Formulation Example 16 was diluted with water to a predetermined dilution rate and then sprayed at an application rate equal to 5 l per are onto the foliage of each plant by means of a pressure-operated ULV (ultra low volume) sprayer. Influence to the weeds were observed on the 30th day after the spray of the herbicides. In the table, each Ea means an acutally measured value of herbicidal activities when two kinds of herbicides were mixed. Each Ec is an expected value for herbicidal activities, calculated in accordance with the below-described calculation formula proposed by Colby et al. [Colby, S. R., Weed 15, 20-22 (1967)]. Ea>Ec indicates the existence of synergistic action while […] action. [formula] Ec: Growth inhibition rate (%) expected when Ingredient I and Ingredient II are mixed.
(§5) Ex: Growth inhibition rate (%) when treated with Ingredient I alone.
(§6) Ey: Growth inhibition rate (%) when treated with Ingredient II alone.

barnyardgrass [7] = test: as above; conditions: Echinochloa crus-galli, 720 h, applied alone, 30th day, read-out: Herbicidal effects (%) Barnyardgrass Ea; for pest or weed control at 1000 g/ha: 1 kg/ha
Procedure: as §4, §5, §6

green foxtail [8] = test: as above; conditions: Setaria viridis, 720 h, applied alone, 30th day, read-out: Herbicidal effects (%) Green foxtail Ea; for pest or weed control at 1000 g/ha: 1 kg/ha
Procedure: as §4, §5, §6

rice = test: Treatment of soil under submerged condition, pre-emergence (Test 4), injury; conditions: 30 g ai/a granule, 30 days later
Procedure, shortened: as §3

common lambsquarters = test: Upland soil application test (Test 2); conditions: 30 g ai/a, soil spray before emergence, 30 days later
Procedure, shortened: (§7)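 Weeds are grown from seed incorporated in upland field soil under greenhouse conditions and treated pre-emergence, one day after sowing, with a water-diluted wettable powder of each compound. Effect is scored after 30 days from air-dried weight relative to untreated pots.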

johnsongrass = test: Upland soil application test (Test 2); conditions: 30 g ai/a, soil spray before emergence, 30 days later
Procedure, shortened: as §7

barnyardgrass [9] = test: Upland soil application test (Test 2); conditions: 30 g ai/a, soil spray before emergence, 30 days later
Procedure, shortened: as §7

green foxtail [10] = test: Upland soil application test (Test 2); conditions: 30 g ai/a, soil spray before emergence, 30 days later
Procedure, shortened: as §7

large crabgrass = test: Upland soil application test (Test 2); conditions: 30 g ai/a, soil spray before emergence, 30 days later
Procedure, shortened: as §7

redroot pigweed = test: Upland soil application test (Test 2); conditions: 30 g ai/a, soil spray before emergence, 30 days later
Procedure, shortened: as §7

foxtail meadow = test: Upland soil application test (Test 2); conditions: 30 g ai/a, soil spray before emergence, 30 days later
Procedure, shortened: as §7

Row | SMILES | Injury Soybean (soybean) | Injury Cotton (cotton) | Injury Peanut (peanut) | Herbicidal effects Sagittaria Pygmaea (Sagittaria pygmaea [1]) | Herbicidal effects Barnyardgrass (barnyardgrass [2]) | Herbicidal effects Bulrush (bulrush [3]) | Herbicidal effects Sagittaria Pygmaea (Sagittaria pygmaea [4]) | Herbicidal effects Barnyardgrass (barnyardgrass [5]) | Herbicidal effects Bulrush (bulrush [6]) | pest or weed control at 1000 g/ha (morningglories) [%] | pest or weed control at 1000 g/ha (barnyardgrass [7]) [%] | pest or weed control at 1000 g/ha (green foxtail [8]) [%] | Injury Rice (rice) | Herbicidal effects Common lambsquarters (common lambsquarters) | Herbicidal effects Johnsongrass (johnsongrass) | Herbicidal effects Barnyardgrass (barnyardgrass [9]) | Herbicidal effects Green foxtail (green foxtail [10]) | Herbicidal effects Large crabgrass (large crabgrass) | Herbicidal effects Redroot pigweed (redroot pigweed) | Herbicidal effects Foxtail meadow (foxtail meadow) | further results
1 | COc1cc(OC)nc(Oc2ccccc2C=NOCc2ccccc2)n1 [Compound No. 15] | 0 (91-100 (No damages)) | 0 (91-100 (No damages)) | 0 (91-100 (No damages)) | 3 (11-40 (Medium damages)) | 5 (0-5 (Death)) | 4 (6-10 (Severe damages)) | 3 (11-40 (Medium damages)) | 4 (6-10 (Severe damages)) | 1 (71-90 (Slight damages)) | 0 | 50 | 20 | 1 (71-90 (Slight damages)) | 4 (6-10 (Severe damages)) | 5 (0-5 (Death)) | 5 (0-5 (Death)) | 5 (0-5 (Death)) | 4 (6-10 (Severe damages)) | 4 (6-10 (Severe damages)) | 5 (0-5 (Death)) | 
2 | C#CCON=Cc1ccccc1Oc1nc(OC)cc(OC)n1 [Compound No. 13, 0-(2-propynyl)-2-(4,6-dimethoxy-2-pyrimidinyloxy)benzaldoxime] | 0 (91-100 (No damages)) | 0 (91-100 (No damages)) | 0 (91-100 (No damages)) | 3 (11-40 (Medium damages)) | 5 (0-5 (Death)) | 4 (6-10 (Severe damages)) | 4 (6-10 (Severe damages)) | 4 (6-10 (Severe damages)) | 5 (0-5 (Death)) | 10 | 70 | 40 | 1 (71-90 (Slight damages)) | 4 (6-10 (Severe damages)) | 5 (0-5 (Death)) | 5 (0-5 (Death)) | 5 (0-5 (Death)) | 5 (0-5 (Death)) | 5 (0-5 (Death)) | 5 (0-5 (Death)) | 
3 | COc1cc(OC)nc(Oc2ccccc2C=NOCC=Cc2cccc(C)c2)n1 [Compound No. 34, 0-(3-methylcinnamyl)-2-(4,6-dimethoxy-2-pyrimidinyloxy)benzaldoxime] | 0 (91-100 (No damages)) | 0 (91-100 (No damages)) | 0 (91-100 (No damages)) | 3 (11-40 (Medium damages)) | 5 (0-5 (Death)) | 4 (6-10 (Severe damages)) | 5 (0-5 (Death)) | 4 (6-10 (Severe damages)) | 4 (6-10 (Severe damages)) |  |  |  | 0 (91-100 (No damages)) | 4 (6-10 (Severe damages)) | 5 (0-5 (Death)) | 5 (0-5 (Death)) | 5 (0-5 (Death)) | 4 (6-10 (Severe damages)) | 4 (6-10 (Severe damages)) | 5 (0-5 (Death)) | pest or weed control at 300 g/ha (morningglories; 0.3 kg/ha): 0%; pest or weed control at 300 g/ha (barnyardgrass [7]; 0.3 kg/ha): 30%; pest or weed control at 300 g/ha (green foxtail [8]; 0.3 kg/ha): 30%
4 | CC=CCON=Cc1ccccc1Oc1nc(OC)cc(OC)n1 [compound 8] | 0 (91-100 (No damages)) | 0 (91-100 (No damages)) | 0 (91-100 (No damages)) | 5 (0-5 (Death)) | 5 (0-5 (Death)) | 5 (0-5 (Death)) | 4 (6-10 (Severe damages)) | 4 (6-10 (Severe damages)) | 4 (6-10 (Severe damages)) |  |  |  | 1 (71-90 (Slight damages)) | 4 (6-10 (Severe damages)) | 5 (0-5 (Death)) | 4 (6-10 (Severe damages)) | 5 (0-5 (Death)) | 4 (6-10 (Severe damages)) | 5 (0-5 (Death)) | 5 (0-5 (Death)) | 
5 | CON=Cc1ccccc1Oc1nc(OC)cc(OC)n1 [Compound No. 1, O-methyl--2-(4,6-dimethoxy-2-pyrimidinyloxy)benzaldoxime] | 0 (91-100 (No damages)) | 0 (91-100 (No damages)) | 0 (91-100 (No damages)) | 3 (11-40 (Medium damages)) | 4 (6-10 (Severe damages)) | 5 (0-5 (Death)) | 3 (11-40 (Medium damages)) | 2 (41-70 (Small damages)) | 2 (41-70 (Small damages)) |  |  |  | 0 (91-100 (No damages)) | 4 (6-10 (Severe damages)) | 5 (0-5 (Death)) | 5 (0-5 (Death)) | 5 (0-5 (Death)) | 4 (6-10 (Severe damages)) | 5 (0-5 (Death)) | 5 (0-5 (Death)) | 
6 | COc1cc(OC)nc(Oc2ccccc2C=NOCC=Cc2ccc(F)cc2)n1 [compound 29] | 0 (91-100 (No damages)) | 0 (91-100 (No damages)) | 0 (91-100 (No damages)) | 4 (6-10 (Severe damages)) | 5 (0-5 (Death)) | 4 (6-10 (Severe damages)) | 3 (11-40 (Medium damages)) | 3 (11-40 (Medium damages)) | 3 (11-40 (Medium damages)) |  |  |  | 0 (91-100 (No damages)) | 4 (6-10 (Severe damages)) | 5 (0-5 (Death)) | 5 (0-5 (Death)) | 4 (6-10 (Severe damages)) | 5 (0-5 (Death)) | 5 (0-5 (Death)) | 4 (6-10 (Severe damages)) | 
